Measured values: US20220257491A1, “Prebiotic Oral Care Compositions and Methods” (Colgate-Palmolive Company, priority 2021, published 2022)
Values joined by “and” are separate entries in the source; they are usually repeats but may differ in a detail not shown here. Equal entries are not always repeated.

What was measured:
Format in all cases: cell-based
[1] = test system: A. actinomycetemcomitans; assay: Multi-species biofilm composition: absolute abundance of A. actinomycetemcomitans; conditions: mean±SD n=3
Method: (§1) Biofilms are grown vertically on Calcium Deficient Hydroxyapatite (CAD-HA) disks (Hitemco Medical, Old Bethpage, USA) using the Amsterdam Active Adhesion model. Biofilms are allowed to establish during 24 h (37° C., 170 rpm) under micro-aerophilic conditions (6% O2, 7% CO2, 7% H2, 80% N2). After this 24 h, disks are rinsed 3 times a day for 3 minutes (RT, 250 rpm), for 3 consecutive days, by transferring the lid containing the disks to a new 24-well plate containing 2 mL/well of the appropriate substrate solution. As a negative control, PBS (pH 5.7) without substrate supplementation is used. After each rinsing step, disks are shortly dip-rinsed in a new 24-well plate containing fresh modified BHI medium (2 mL/well) to remove remaining substrate traces. Subsequently, the lid is transferred to another 24-well plate containing fresh modified BHI medium (2 mL/well), followed by incubation (micro-aerophilic, 37° C., 170 rpm) until the next rinsing step.
(§2) NADM, N-acetyl-D-glucosamine (“NADG”) and D-(+)-mannose are selected to determine their effects on multi-species biofilm composition. […] decrease in absolute numbers in at least four of the pathogenic bacterial species tested in the assay, compared to the control, the results of which are described in Table 1 below. Absolute abundances of bacterial species are shown as mean±SD (n=3) logarithmic values of the genome equivalents per millilitre (log(Geq/mL)).

[2] = test system: F. nucleatum; assay: Multi-species biofilm composition: absolute abundance of F. nucleatum; conditions: mean±SD n=3
Method: as §1, §2

[3] = test system: S. sobrinus; assay: Multi-species biofilm composition: absolute abundance of S. sobrinus; conditions: mean±SD n=3
Method: as §1, §2

[4] = test system: A. viscosus; assay: Multi-species biofilm composition: absolute abundance of A. viscosus; conditions: mean±SD n=3
Method: as §1, §2

[5] = test system: S. gordonii; assay: Multi-species biofilm composition: absolute abundance of S. gordonii; conditions: mean±SD n=3
Method: as §1
(§3) NADM, N-acetyl-D-glucosamine (“NADG”) and D-(+)-mannose are selected to determine their effects on multi-species biofilm composition. Repeated rinsing of the biofilms with the substrates at a concentration of 1M results in a significant decrease in absolute numbers in at least four of the pathogenic bacterial species tested in the assay, compared to the control, the results of which are described in Table 1 below. Absolute abundances of bacterial species are shown as mean±SD (n=3) logarithmic values of the genome equivalents per millilitre (log(Geq/mL)).

[6] = test system: S. mitis; assay: Multi-species biofilm composition: absolute abundance of S. mitis; conditions: mean±SD n=3
Method: as §1, §2

[7] = test system: S. sanguinis; assay: Multi-species biofilm composition: absolute abundance of S. sanguinis; conditions: mean±SD n=3
Method: as §1, §2

[8] = test system: V. parvula; assay: Multi-species biofilm composition: absolute abundance of V. parvula; conditions: mean±SD n=3
Method: as §1, §3

[9] = test system: multi-species biofilm; assay: Relative multi-species biofilm composition (groups of bacterial species)
Method: as §1, §2
Relative abundances of the different groups (beneficial/commensals, periodontal pathogens, cariogenic pathogens) of bacterial species are shown as mean±SD (n=3) percentage of the genome equivalents per millilitre (% (Geq/mL)). […] NADM: N-acetyl-D-mannosamine; NADG: N-acetyl-D-glucosamine.

[10] = test system: multi-species biofilms; assay: Multi-species biofilm organic acid balances (supernatant); conditions: >0 production, <0 consumption, mean±SD n=3
Method: as §1
To examine the effect of NADM and the influence of the orientation and absence/presence of the N-acetyl group on organic acid production and consumption, supernatant samples from substrate-treated or untreated multi-species biofilms are analysed. […] When comparing relevant significant differences between substrate conditions, an increase in acetate production is observed for NADM compared to D-(+)-mannose (3084±174 vs. 1934±56 mg/L).

[11] = test system: P. intermedia virulence genes; assay: Multi-species biofilm virulence gene expression, SYBR RT-qPCR: P. intermedia; conditions: for Fold Change in virulence gene expression: DnaJ / Fold Change in virulence gene expression: DnaK / Fold Change in virulence gene expression: ECF / Fold Change in virulence gene expression: GroES / Fold Change in virulence gene expression: HtpG / Fold Change in virulence gene expression: KpsD / Fold Change in virulence gene expression: adpc / Fold Change in virulence gene expression: clpB / Fold Change in virulence gene expression: inpA / Fold Change in virulence gene expression: phg: relative to control (=1), 2^-ΔΔCt, geometric mean n=3
Method: as §1
The expression of 33 virulence genes from 4 periodontal pathogens is analysed to evaluate the relative virulence of the substrate-treated biofilms. For all three substrates, virulence gene expression is determined relatively to the control, and these values are also compared between substrates when this is relevant (Tables 5a-5d).

[12] = substrate 1%(w/v) in PBS, mean±SD n=3
[13] = substrate 1 M in PBS, mean±SD n=3

## CC(=O)N[C@H]1C(O)O[C@H](CO)[C@@H](O)[C@@H]1O (stereo partly drawn) [NADG, N-acetyl-D-glucosamine, reference compound]
[1]; substrate 1%(w/v) in PBS
  Absolute abundance Aa (A. actinomycetemcomitans): 9.11 ± 0.20 log(Geq/mL)
[1]; substrate 1 M in PBS
  Absolute abundance Aa (A. actinomycetemcomitans): 6.6 ± 0.93 log(Geq/mL)
[2]; substrate 1%(w/v) in PBS
  Absolute abundance Fn (F. nucleatum): 9.41 ± 0.19 log(Geq/mL)
[2]; substrate 1 M in PBS
  Absolute abundance Fn (F. nucleatum): 7.09 ± 0.30 log(Geq/mL)
[3]; substrate 1%(w/v) in PBS
  Absolute abundance S. sobrinus: 4.87 ± 0.22 log(Geq/mL)
[3]; substrate 1 M in PBS
  Absolute abundance S. sobrinus: 4.16 ± 0.44 log(Geq/mL)
[4]; substrate 1%(w/v) in PBS
  Absolute abundance Av (A. viscosus): 7.83 ± 0.31 log(Geq/mL)
[4]; substrate 1 M in PBS
  Absolute abundance Av (A. viscosus): 6.92 ± 0.45 log(Geq/mL)
[5]; substrate 1%(w/v) in PBS
  Absolute abundance S. gord. (S. gordonii): 8.33 ± 0.06 log(Geq/mL)
[5]; substrate 1 M in PBS
  Absolute abundance S. gord. (S. gordonii): 9.38 ± 0.40 log(Geq/mL)
[6]; substrate 1%(w/v) in PBS
  Absolute abundance S. mitis: < LOD
[6]; substrate 1 M in PBS
  Absolute abundance S. mitis: <LOD
[7]; substrate 1%(w/v) in PBS
  Absolute abundance S. sang. (S. sanguinis): 8.4 ± 0.11 log(Geq/mL)
[7]; substrate 1 M in PBS
  Absolute abundance S. sang. (S. sanguinis): 8.11 ± 0.68 log(Geq/mL)
[8]; substrate 1%(w/v) in PBS
  Absolute abundance Vp (V. parvula): 9.77 ± 0.19 log(Geq/mL)
[8]; substrate 1 M in PBS
  Absolute abundance Vp (V. parvula): 10.57 ± 0.24 log(Geq/mL)
[9]; [12]
  Relative abundance Beneficials/Commensals: 60.07 ± 8.25 % (Geq/mL)
  Relative abundance Cariogenic Pathogens: 0.66±0.27 % (Geq/mL)
  Relative abundance Periodontal Pathogens: 39.27 ± 7.98 % (Geq/mL)
[9]; [13]
  Relative abundance Beneficial or commensals: 97.52±0.82 % (Geq/mL)
  Relative abundance Cariogenic Pathogens: 2.35 ± 0.92 % (Geq/mL)
  Relative abundance Periodontal Pathogens: 0.13±0.10 % (Geq/mL) and 0.13 ± 0.10 *^, #1 % (Geq/mL)
[9]; substrate 1 M, range over the species
  Decreases in A. actinomycetemcomitans, F. nucleatum, P. gingivalis, P. intermedia and S. sobrinus numbers vs control: −1.5 to −2.5 log(Geq/mL)
[10]; substrate 1%(w/v)
  acetate level in biofilm supernatant: 379 ± 10 mg/L
  butyrate level in biofilm supernatant: 2238 ± 59 mg/L
  formate level in biofilm supernatant: 4315 ± 198 mg/L
  lactate level in biofilm supernatant: 125 ± 0 mg/L
  propionate level in biofilm supernatant: 2205 ± 89 mg/L
[10]; substrate 1 M
  acetate level in biofilm supernatant: 3815 ± 77 mg/L
  butyrate level in biofilm supernatant: 1255±51 mg/L and 1255 ± 51*^, #1, 3 mg/L
  formate level in biofilm supernatant: 352 ± 18 mg/L
  lactate level in biofilm supernatant: 125 ± 0 mg/L
  propionate level in biofilm supernatant: 2750 ± 40 mg/L
[11]; substrate 1%(w/v), D-(+)-mannose for 3 genes
  Relative P. intermedia virulence gene expression, downregulation: unaffected
[11]; substrate 1%
  Fold Change in virulence gene expression: DnaJ: 0.7 fold
  Fold Change in virulence gene expression: DnaK: 0.77 fold
  Fold Change in virulence gene expression: ECF: 0.48 fold
  Fold Change in virulence gene expression: GroES: 0.75 fold
  Fold Change in virulence gene expression: HtpG: 0.46 fold
  Fold Change in virulence gene expression: KpsD: 0.78 fold
  Fold Change in virulence gene expression: adpc: 0.67 fold
  Fold Change in virulence gene expression: clpB: 1.06 fold
  Fold Change in virulence gene expression: inpA: 0.53 fold
  Fold Change in virulence gene expression: phg: 0.69 fold
[11]; substrate 1 M, range over genes
  P. intermedia virulence gene expression, increases: 2- to 20.3 fold
[11]; substrate 1M
  Fold Change in virulence gene expression: DnaJ: 0.64 fold
  Fold Change in virulence gene expression: DnaK: 2.34 fold
  Fold Change in virulence gene expression: ECF: 20.32 fold
  Fold Change in virulence gene expression: GroES: 1.86 fold
  Fold Change in virulence gene expression: HtpG: 3.40 fold
  Fold Change in virulence gene expression: KpsD: 1.72 fold
  Fold Change in virulence gene expression: adpc: 2.65 fold
  Fold Change in virulence gene expression: clpB: 2.03 fold
  Fold Change in virulence gene expression: inpA: 4.52 fold
  Fold Change in virulence gene expression: phg: 0.57 fold
